For orientation: solubility means the dissolved amount per volume that the medium holds. The low end stands for a poorly soluble substance, the high end for a readily soluble substance.

In brackets after ≈: the same amount, converted by molar mass.

Holding throughout (type): physicochemical
The nature of data set [1]: pH dependent solubility of Compound (A).
Data set [2] is described as follows: Dissolution rate of capsules filled with granule particles (paddle 50 rpm). The settings on record: pH 3, 50 mg dose in 900 mL. On the procedure: Variant P7 was selected as the optimized granule composition in terms of copovidone and SLS ratio, thus the amount to be sprayed on the inert substrate (carrier particle) allow a drug load of 20%, based on the total weight of the granule particle, in a reasonable processing time. The dissolution performance of the different variant of granule particle compositions was evaluated to ensure the dissolution profile was in a good range. The dissolution rate is measured by conventional method (paddle method according to Pharm. Eur. 2.9.3 “Dissolution Test for Solid Dosage Forms” or US Pharmacopeia <711> “Dissolution” or Japanese Pharmacopiea <6.10> “Dissolution Test), as it can be seen in FIG. 1 and FIG. 2, by adding the granule particles prepared as mentioned in Table 1 into capsules (e.g. hard gelatin capsule). […] Some of the tested capsules comprising the above mentioned granule particles, the disintegration and dispersion of the content was delayed, leading to a delayed dissolution rate (DR) profile at paddle 50 rpm. […]
In order to have a better understanding of the formulation/pH profile, the dissolution rate profiles of the formulations described in Table 2 and Table 3 were measured at pH 2, pH 3, pH 4.5 and pH 6.8. […]

The nature of data set [3]: Particle size of wet-media milled suspension by Photon Correlation Spectroscopy (PCS). The settings on record: Example 7. The source says: The following examples illustrate the invention and provide support for the disclosure of the present invention without limiting the scope of the invention. • Analytical Centrifugation (AC), e.g., LUMiSizer, LUM GmbH Germany, SEPView 6.1.2570.2022. Wet dispersion method using purified water solution for dilution of suspension to appropriate attenuation level with about 10 to 70% transmission of first measurement profile. The reported results for X10, X50, X90 are intensity weighted. • Photon Correlation Spectroscopy (PCS), e.g., Zetasizer Nano ZS, Malver Panalytical Ltd., UK, Version 7.3. Wet dispersion method using 0.1 mM NaCl solution (in purified water) for dilution of suspension to appropriate attenuation level with about 2 to 9 attenuator index. The reported results for Xmean are intensity weighted. In particular, the attenuator index is 5. Preferably, the measurement is carried at 25° C. […]

In the case of `C=CC(=O)N(C)CCOc1c(N)ncnc1-c1cc(F)cc(NC(=O)c2ccc(C3CC3)cc2F)c1C` [Compound (A), N-(3-(6-amino-5-(2-(N-methylacrylamido)ethoxy)pyrimidin-4-yl)-5-fluoro-2-methylphenyl)-4-cyclopropyl-2-fluorobenzamide], in data set [1], the “Biopharmaceutics classification system Class” value is listed as “Class 2”. The solubility in data set [1] (pH 1.2, simulated gastric fluid) was 3 mg/mL (≈ 5910 µM); in data set [1] (pH 2, simulated gastric fluid), 0.3 mg/mL (≈ 591 µM); in data set [1] (pH 3, aqueous buffer), 0.003 mg/mL (≈ 5.91 µM). The “percent of dose dissolved at plateau” value in data set [2] amounted to 90%. Besides, the “particle size of the DS in wet media milled before dilution for spray granulation” value in data set [3] amounted to 123 nm.

The values are drawn from patent US20250281413A1, “PHARMACEUTICAL COMPOSITION” (Novartis AG, priority 2021, published 2025).
